Test results: patent US10118947B2, “Modulation of structured polypeptide specificity” (BICYCLE THERAPEUTICS LIMITED, priority 2013, dated 2018)
Like-named read-outs stand apart in the source and are kept apart here. Values belong to the compound of their own block, whether it stands above or below them. Numbered stars: 1 amine (or outer) side, 2 acyl side, 3 side chain; on linkers, the order of the positions; unused ones are H or OH. Bridge positions count the residues as written; N and C are the ends. Square brackets hold non-standard residues; d marks the D form. Peptide text beside a SMILES is read from it. Ala(4-thiazolyl) = N[C@@H](Cc1cscn1)C(=O)O; His(τ-Me) = Cn1cnc(C[C@H](N)C(=O)O)c1; TBMB = c1c(C[*:1])cc(C[*:3])cc1C[*:2]; His(π-Me) = Cn1cncc1C[C@H](N)C(=O)O; 4Pal = N[C@@H](Cc1ccncc1)C(=O)O; Agb = N=C(N)NCC[C@H](N)C(=O)O; Agp = N=C(N)NC[C@H](N)C(=O)O; Dap = NC[C@H](N)C(=O)O

Target: T1, human plasma Kallikrein (Homo sapiens, UniProt P03952)
T1 construct: purchased Stratech, UK
Assay: Functional enzyme inhibition assay with fluorogenic substrate Z-PheArg-AMC, human plasma Kallikrein
Type: biochemical
Conditions: for F (Kivar/KiWT): ratio of Ki to wild type
Procedure: Functional enzyme assays were conducted in 10 mM Tris HCl, 150 mM NaCl, 10 mM MgCl2, 1 mM CaCl2) and 1 mg/mL BSA (all Sigma UK) pH7.4 at 25° C. in solid black 96 well plates. Briefly 26.5 pM human plasma Kallikrein (purchased from Stratech, UK) or 500 pM rat plasma Kallikrein (expressed and purified in house) were incubated in the absence or presence of increasing concentrations of test peptide for 15 minutes before addition of the fluorogenic substrate Z-PheArg-AMC (Enzo Lifesciences UK) to a final assay concentration of 100 μM in 4% DMSO. Release of AMC was measured using a Pherastar FS (BMG Labtech), excitation 360 nm, emission 460 nm. The rate of the linear phase of the reaction, typically 5 to 45 minutes, was calculated in MARS data analysis software (BMG labtech). The rate was then used to calculate the IC50 and Ki in Prism (GraphPad). A four parameter inhibition non-linear regression equation was used to calculate the IC50.
Peptides were dissolved as the TFA-salts in their powder form, and stock solutions were usually prepared in water. All solutions were centrifuged and filtered ([…] syringe filters) prior absorption measurement at 280 nm. […] For peptides containing non-natural amino acids with suspected chromophoric properties (i.e. NorHar, 4PhenylPro, 3Pal, 4Pal, Tic, 4GuanPhe, 4,4-BPAI, 3,3-DPA, 1NAI, 2NAI, 4BenzylPro, Ind) concentrations were determined by weighing the powder and dissolving the peptide in a defined quantity of water.

[1] = Table 24b, residue 7 modifications, read-out: Ki
[2] = Table 24c, residue 8 modifications, read-out: Ki
[3] = Table 3c, D-Alanine scan in Loop2, read-out: Ki

T1 sequence (P03952 20-638): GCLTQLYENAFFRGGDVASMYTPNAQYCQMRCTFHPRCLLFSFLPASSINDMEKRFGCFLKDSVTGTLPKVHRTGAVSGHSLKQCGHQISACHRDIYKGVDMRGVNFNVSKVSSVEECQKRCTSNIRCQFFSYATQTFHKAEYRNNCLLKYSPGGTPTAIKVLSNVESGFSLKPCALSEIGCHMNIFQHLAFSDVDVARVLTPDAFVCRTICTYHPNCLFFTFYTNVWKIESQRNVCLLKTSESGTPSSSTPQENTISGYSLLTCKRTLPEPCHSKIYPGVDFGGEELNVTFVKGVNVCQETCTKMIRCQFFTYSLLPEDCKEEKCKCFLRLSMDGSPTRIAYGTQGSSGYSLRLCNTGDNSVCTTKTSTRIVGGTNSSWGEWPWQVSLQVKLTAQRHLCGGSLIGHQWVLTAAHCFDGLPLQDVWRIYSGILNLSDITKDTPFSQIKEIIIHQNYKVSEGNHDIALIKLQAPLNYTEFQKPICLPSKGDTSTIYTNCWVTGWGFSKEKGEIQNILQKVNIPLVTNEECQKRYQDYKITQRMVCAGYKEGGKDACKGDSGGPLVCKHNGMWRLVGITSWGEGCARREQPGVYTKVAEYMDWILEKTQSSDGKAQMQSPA

Structure (SMILES): CC(=O)N[C@H]1CSCc2cc3cc(c2)CSC[C@H](NC(=O)[C@H](CCCNC(=N)N)NC(=O)[C@H](Cc2ccc(O)cc2)NC(=O)[C@@H]2CCCN2C(=O)[C@H](Cc2ccccc2)NC(=O)[C@H](CO)NC1=O)C(=O)N[C@@H](CC(C)C)C(=O)N[C@@H](Cc1ccncc1)C(=O)N[C@@H](CCC(N)=O)C(=O)N[C@@H](CC(=O)O)C(=O)N[C@@H](CC(C)C)C(=O)N[C@H](C(N)=O)CSC3 [Ac-(06-34-18) Phe2 Tyr4 4Pal7] (Ac-CSFPYRCL[4Pal]QDLC-NH2; linker 1-7-13 via TBMB)
- Ki [1]: 79 nM
- F (Kivar/KiWT) (Table 24b): 187

Structure (SMILES): CC(=O)N[C@H]1CSCc2cc3cc(c2)CSC[C@H](NC(=O)[C@H](CCCNC(=N)N)NC(=O)[C@H](Cc2ccc(O)cc2)NC(=O)[C@@H]2CCCN2C(=O)[C@H](Cc2ccccc2)NC(=O)[C@H](CO)NC1=O)C(=O)N[C@@H](CC(C)C)C(=O)N[C@@H](Cc1cscn1)C(=O)N[C@@H](CCC(N)=O)C(=O)N[C@@H](CC(=O)O)C(=O)N[C@@H](CC(C)C)C(=O)N[C@H](C(N)=O)CSC3 [Ac-(06-34-18) Phe2 Tyr4 4ThiAz7] (Ac-CSFPYRCL[Ala(4-thiazolyl)]QDLC-NH2; linker 1-7-13 via TBMB)
- Ki [1]: 14 nM
- F (Kivar/KiWT) (Table 24b): 33

Structure (SMILES): CC(=O)N[C@H]1CSCc2cc3cc(c2)CSC[C@H](NC(=O)[C@H](CCCNC(=N)N)NC(=O)[C@H](Cc2ccc(O)cc2)NC(=O)[C@@H]2CCCN2C(=O)[C@H](Cc2ccccc2)NC(=O)[C@H](CO)NC1=O)C(=O)N[C@@H](CC(C)C)C(=O)N[C@@H](CCNC(=N)N)C(=O)N[C@@H](CCC(N)=O)C(=O)N[C@@H](CC(=O)O)C(=O)N[C@@H](CC(C)C)C(=O)N[C@H](C(N)=O)CSC3 [Ac-(06-34-18) Phe2 Tyr4 Agb7] (Ac-CSFPYRCL[Agb]QDLC-NH2; linker 1-7-13 via TBMB)
- Ki [1]: 2250 nM
- F (Kivar/KiWT) (Table 24b): 5365

Structure (SMILES): CC(=O)N[C@H]1CSCc2cc3cc(c2)CSC[C@H](NC(=O)[C@H](CCCNC(=N)N)NC(=O)[C@H](Cc2ccc(O)cc2)NC(=O)[C@@H]2CCCN2C(=O)[C@H](Cc2ccccc2)NC(=O)[C@H](CO)NC1=O)C(=O)N[C@@H](CC(C)C)C(=O)N[C@@H](CNC(=N)N)C(=O)N[C@@H](CCC(N)=O)C(=O)N[C@@H](CC(=O)O)C(=O)N[C@@H](CC(C)C)C(=O)N[C@H](C(N)=O)CSC3 [Ac-(06-34-18) Phe2 Tyr4 Agp7] (Ac-CSFPYRCL[Agp]QDLC-NH2; linker 1-7-13 via TBMB)
- Ki [1]: 672 nM
- F (Kivar/KiWT) (Table 24b): 1599

Structure (SMILES): CC(=O)N[C@H]1CSCc2cc3cc(c2)CSC[C@H](NC(=O)[C@H](CCCNC(=N)N)NC(=O)[C@H](Cc2ccc(O)cc2)NC(=O)[C@@H]2CCCN2C(=O)[C@H](Cc2ccccc2)NC(=O)[C@H](CO)NC1=O)C(=O)N[C@@H](CC(C)C)C(=O)N[C@@H](Cc1c[nH]cn1)C(=O)N[C@@H](CC(=O)O)C(=O)N[C@@H](CC(=O)O)C(=O)N[C@@H](CC(C)C)C(=O)N[C@H](C(N)=O)CSC3 [Ac-(06-34-18) Phe2 Tyr4 Asp8] (Ac-CSFPYRCLHDDLC-NH2; linker 1-7-13 via TBMB)
- Ki [2]: 3.83 nM
- F (Kivar/KiWT) (Table 24c): 9

Structure (SMILES): CC(=O)N[C@H]1CSCc2cc3cc(c2)CSC[C@H](NC(=O)[C@H](CCCNC(=N)N)NC(=O)[C@H](Cc2ccc(O)cc2)NC(=O)[C@@H]2CCCN2C(=O)[C@H](Cc2ccccc2)NC(=O)[C@H](CO)NC1=O)C(=O)N[C@H](C)C(=O)N[C@@H](Cc1c[nH]cn1)C(=O)N[C@@H](CCC(N)=O)C(=O)N[C@@H](CC(=O)O)C(=O)N[C@@H](CC(C)C)C(=O)N[C@H](C(N)=O)CSC3 [Ac-(06-34-18) Phe2 Tyr4 D-Ala6] (Ac-CSFPYRC[dA]HQDLC-NH2; linker 1-7-13 via TBMB)
- Ki [3]: 9450 nM
- F (Kivar/KiWT) (Table 3c): 22507

The remaining lines, values ahead:

- Ki [3]: 243 nM
- F (Kivar/KiWT) (Table 3c): 578
Structure (SMILES): CC(=O)N[C@H]1CSCc2cc3cc(c2)CSC[C@H](NC(=O)[C@H](CCCNC(=N)N)NC(=O)[C@H](Cc2ccc(O)cc2)NC(=O)[C@@H]2CCCN2C(=O)[C@H](Cc2ccccc2)NC(=O)[C@H](CO)NC1=O)C(=O)N[C@@H](CC(C)C)C(=O)N[C@@H](Cc1c[nH]cn1)C(=O)N[C@H](C)C(=O)N[C@@H](CC(=O)O)C(=O)N[C@@H](CC(C)C)C(=O)N[C@H](C(N)=O)CSC3 [Ac-(06-34-18) Phe2 Tyr4 D-Ala8] (Ac-CSFPYRCLH[dA]DLC-NH2; linker 1-7-13 via TBMB)

- Ki [3]: 19.9 nM
- F (Kivar/KiWT) (Table 3c): 47
Structure (SMILES): CC(=O)N[C@H]1CSCc2cc3cc(c2)CSC[C@H](NC(=O)[C@H](CCCNC(=N)N)NC(=O)[C@H](Cc2ccc(O)cc2)NC(=O)[C@@H]2CCCN2C(=O)[C@H](Cc2ccccc2)NC(=O)[C@H](CO)NC1=O)C(=O)N[C@@H](CC(C)C)C(=O)N[C@@H](Cc1c[nH]cn1)C(=O)N[C@@H](CCC(N)=O)C(=O)N[C@H](C)C(=O)N[C@@H](CC(C)C)C(=O)N[C@H](C(N)=O)CSC3 [Ac-(06-34-18) Phe2 Tyr4 D-Ala9] (Ac-CSFPYRCLHQ[dA]LC-NH2; linker 1-7-13 via TBMB)

- Ki [3]: 572 nM
- F (Kivar/KiWT) (Table 3c): 1362
Structure (SMILES): CC(=O)N[C@H]1CSCc2cc3cc(c2)CSC[C@H](NC(=O)[C@H](CCCNC(=N)N)NC(=O)[C@H](Cc2ccc(O)cc2)NC(=O)[C@@H]2CCCN2C(=O)[C@H](Cc2ccccc2)NC(=O)[C@H](CO)NC1=O)C(=O)N[C@@H](CC(C)C)C(=O)N[C@@H](Cc1c[nH]cn1)C(=O)N[C@@H](CCC(N)=O)C(=O)N[C@@H](CC(=O)O)C(=O)N[C@H](C)C(=O)N[C@H](C(N)=O)CSC3 [Ac-(06-34-18) Phe2 Tyr4 D-Ala10] (Ac-CSFPYRCLHQD[dA]C-NH2; linker 1-7-13 via TBMB)

- Ki [1]: 246 nM
- F (Kivar/KiWT) (Table 24b): 586
Structure (SMILES): CC(=O)N[C@H]1CSCc2cc3cc(c2)CSC[C@H](NC(=O)[C@H](CCCNC(=N)N)NC(=O)[C@H](Cc2ccc(O)cc2)NC(=O)[C@@H]2CCCN2C(=O)[C@H](Cc2ccccc2)NC(=O)[C@H](CO)NC1=O)C(=O)N[C@@H](CC(C)C)C(=O)N[C@@H](CN)C(=O)N[C@@H](CCC(N)=O)C(=O)N[C@@H](CC(=O)O)C(=O)N[C@@H](CC(C)C)C(=O)N[C@H](C(N)=O)CSC3 [Ac-(06-34-18) Phe2 Tyr4 Dap7] (Ac-CSFPYRCL[Dap]QDLC-NH2; linker 1-7-13 via TBMB)

- Ki [2]: 5.49 nM
- F (Kivar/KiWT) (Table 24c): 13
Structure (SMILES): CC(=O)N[C@H]1CSCc2cc3cc(c2)CSC[C@H](NC(=O)[C@H](CCCNC(=N)N)NC(=O)[C@H](Cc2ccc(O)cc2)NC(=O)[C@@H]2CCCN2C(=O)[C@H](Cc2ccccc2)NC(=O)[C@H](CO)NC1=O)C(=O)N[C@@H](CC(C)C)C(=O)N[C@@H](Cc1c[nH]cn1)C(=O)N[C@@H](CN)C(=O)N[C@@H](CC(=O)O)C(=O)N[C@@H](CC(C)C)C(=O)N[C@H](C(N)=O)CSC3 [Ac-(06-34-18) Phe2 Tyr4 Dap8] (Ac-CSFPYRCLH[Dap]DLC-NH2; linker 1-7-13 via TBMB)

- Ki [2]: 2.53 nM
- F (Kivar/KiWT) (Table 24c): 6
Structure (SMILES): CC(=O)N[C@H]1CSCc2cc3cc(c2)CSC[C@H](NC(=O)[C@H](CCCNC(=N)N)NC(=O)[C@H](Cc2ccc(O)cc2)NC(=O)[C@@H]2CCCN2C(=O)[C@H](Cc2ccccc2)NC(=O)[C@H](CO)NC1=O)C(=O)N[C@@H](CC(C)C)C(=O)N[C@@H](Cc1c[nH]cn1)C(=O)N[C@@H](CCC(=O)O)C(=O)N[C@@H](CC(=O)O)C(=O)N[C@@H](CC(C)C)C(=O)N[C@H](C(N)=O)CSC3 [Ac-(06-34-18) Phe2 Tyr4 Glu8] (Ac-CSFPYRCLHEDLC-NH2; linker 1-7-13 via TBMB)

- Ki [1]: 10 nM
- F (Kivar/KiWT) (Table 24b): 23
Structure (SMILES): CC(=O)N[C@H]1CSCc2cc3cc(c2)CSC[C@H](NC(=O)[C@H](CCCNC(=N)N)NC(=O)[C@H](Cc2ccc(O)cc2)NC(=O)[C@@H]2CCCN2C(=O)[C@H](Cc2ccccc2)NC(=O)[C@H](CO)NC1=O)C(=O)N[C@@H](CC(C)C)C(=O)N[C@@H](Cc1cn(C)cn1)C(=O)N[C@@H](CCC(N)=O)C(=O)N[C@@H](CC(=O)O)C(=O)N[C@@H](CC(C)C)C(=O)N[C@H](C(N)=O)CSC3 [Ac-(06-34-18) Phe2 Tyr4 His1Me7] (Ac-CSFPYRCL[His(τ-Me)]QDLC-NH2; linker 1-7-13 via TBMB)

- Ki [1]: 292 nM
- F (Kivar/KiWT) (Table 24b): 696
Structure (SMILES): CC(=O)N[C@H]1CSCc2cc3cc(c2)CSC[C@H](NC(=O)[C@H](CCCNC(=N)N)NC(=O)[C@H](Cc2ccc(O)cc2)NC(=O)[C@@H]2CCCN2C(=O)[C@H](Cc2ccccc2)NC(=O)[C@H](CO)NC1=O)C(=O)N[C@@H](CC(C)C)C(=O)N[C@@H](Cc1cncn1C)C(=O)N[C@@H](CCC(N)=O)C(=O)N[C@@H](CC(=O)O)C(=O)N[C@@H](CC(C)C)C(=O)N[C@H](C(N)=O)CSC3 [Ac-(06-34-18) Phe2 Tyr4 His3Me7] (Ac-CSFPYRCL[His(π-Me)]QDLC-NH2; linker 1-7-13 via TBMB)

- Ki (Table 24a, residue 6 modification in the context of Ac-(06-34-18) Phe2 Tyr4, read-out: Ki (nM) Ac-(06-34-18) Phe2 Tyr4): 1.46 nM
Structure (SMILES): CC[C@H](C)[C@@H]1NC(=O)[C@@H]2CSCc3cc(cc(c3)CSC[C@H](NC(C)=O)C(=O)N[C@@H](CO)C(=O)N[C@@H](Cc3ccccc3)C(=O)N3CCC[C@H]3C(=O)N[C@@H](Cc3ccc(O)cc3)C(=O)N[C@@H](CCCNC(=N)N)C(=O)N2)CSC[C@@H](C(N)=O)NC(=O)[C@H](CC(C)C)NC(=O)[C@H](CC(=O)O)NC(=O)[C@H](CCC(N)=O)NC(=O)[C@H](Cc2c[nH]cn2)NC1=O [Ac-(06-34-18) Phe2 Tyr4 Ile6] (Ac-CSFPYRCIHQDLC-NH2; linker 1-7-13 via TBMB)
